Data published in patent US12115373B2, “Methods for reducing the risk of strokes by pharmacotherapy to reduce the number and duration of atrial fibrillations” (Xyra, LLC, priority 2022, dated 2024).

What was measured:
[1] = test system: patients with paroxysmal or persistent AFib; assay: Clinical trial evaluation of budiodarone, 6 patients, pacemaker monitoring, two-week dose periods (Example 2); format: in vivo; design: Duration of episodes, Mean / Duration of sinus rhythm, Mean: unit not given here; settings: for # of AFib episodes, Mean / Duration of episodes, Mean / Duration of sinus rhythm, Mean / Longest AFib Episode - hrs: two-week period, 6 patients
Method: This example is a clinical trial evaluation of budiodarone in treating 6 patients with paroxysmal or persistent AFib who previously evidenced episodes of long duration AFib (greater than 24 hours). In this example, the patients' heart rhythm was continuously monitored over a two-week period with a pacemaker, and were treated with different doses of budiodarone. The purpose of this example is to establish whether budiodarone reduces long duration AFib lasting more than 24 hours.

[2] = test system: patients with either paroxysmal or persistent AFib; assay: Clinical trial: episodes of long duration AFib (>1 hr), pacemaker monitoring (Example 5); format: in vivo; settings: 2 week period; for Episodes of AFib > 1 hrs: Duration / Episodes of AFib > 1 hrs: Number: 6 patients
Method: This example is a clinical trial evaluation of budiodarone in treating 6 patients with either paroxysmal or persistent AFib who previously evidenced episodes of long duration AFib (greater than 1 hour). In this example, the patients' heart rhythms were continuously monitored over a twelve-week period with a pacemaker (surgically invasive procedure) and were treated with different doses (2 weeks each) of budiodarone. In addition, during this trial, the patients were under continuous monitoring and constant clinician supervision.
The purpose of this example is to establish whether budiodarone reduces long duration AFib (duration >1 hr) in a clinical study setting using a pacemaker to evaluate the heart rhythm.
As above, “Number” indicates a number of long duration AFib episodes during the 2 week period, and “Duration” indicates a number of hours during the 2 week period sent in the long duration AFib episodes

Question: Which “# of AFib episodes, Mean” value ([1]; 200 mg bid) does the source give for `CC[C@H](C)OC(=O)Cc1oc2ccccc2c1C(=O)c1cc(I)c(OCCN(CC)CC)c(I)c1` [budiodarone, (S)-sec-butyl2-(3-(4-(2-(diethylamino)ethoxy)-3,5-diiodobenzoyl)benzofuran-2-yl)acetate] here?
Answer: 31

Question: And the “Duration of episodes, Mean” value ([1]; 200 mg bid)?
Answer: 1.7

Question: What about the “Duration of sinus rhythm, Mean” value ([1]; 200 mg bid) of the same compound?
Answer: 131

Question: And the “Longest AFib Episode - hrs” value ([1]; 200 mg bid)?
Answer: 7 h

Question: What about the “# of AFib episodes, Mean” value ([1]; 400 mg bid) of the same compound?
Answer: 37

Question: And the “Duration of episodes, Mean” value ([1]; 400 mg bid)?
Answer: 0.6

Question: What about the “Duration of sinus rhythm, Mean” value ([1]; 400 mg bid) of the same compound?
Answer: 48

Question: What about the “Longest AFib Episode - hrs” value ([1]; 400 mg bid) of the same compound?
Answer: 13 h

Question: What about the “# of AFib episodes, Mean” value ([1]; 600 mg bid) of the same compound?
Answer: 42

Question: And the “Duration of episodes, Mean” value ([1]; 600 mg bid)?
Answer: 0.1

Question: And the “Duration of sinus rhythm, Mean” value ([1]; 600 mg bid)?
Answer: 103

Question: And the “Longest AFib Episode - hrs” value ([1]; 600 mg bid)?
Answer: 7 h

Question: What about the “# of AFib episodes, Mean” value ([1]; 800 mg bid) of the same compound?
Answer: 24

Question: And the “Duration of episodes, Mean” value ([1]; 800 mg bid)?
Answer: 0.5

Question: And the “Duration of sinus rhythm, Mean” value ([1]; 800 mg bid)?
Answer: 42

Question: And the “Longest AFib Episode - hrs” value ([1]; 800 mg bid)?
Answer: 5 h

Question: What about the “episodes of long duration AFib lasting more than 24 hours eliminated as compared to Baseline” value ([1]; all dose levels (200-800 mg bid)) of the same compound?
Answer: over 70%

Question: What about the “reduction in AFib burden (number of episodes over a 2-week period times the average duration)” value ([1]; vs baseline, dose levels 200-800 mg bid) of the same compound?
Answer: more than 64%

Question: And the “Episodes of AFib > 1 hrs: Duration, percent of Off Drug (baseline)” value (from here on “Episodes … percent of Off Drug (baseline)”) ([2]; 200 mg bid)?
Answer: (10%)

Question: And the “Episodes of AFib > 1 hrs: Duration” value ([2]; 200 mg bid)?
Answer: 60 h

Question: What about the “Episodes of AFib > 1 hrs: Number” value ([2]; 200 mg bid) of the same compound?
Answer: 22

Question: What about the “Episodes … percent of Off Drug (baseline)” value ([2]; 400 mg bid) of the same compound?
Answer: (9.3%)

Question: And the “Episodes of AFib > 1 hrs: Duration” value ([2]; 400 mg bid)?
Answer: 56 h

Question: What about the “Episodes of AFib > 1 hrs: Number” value ([2]; 400 mg bid) of the same compound?
Answer: 12

Question: And the “Episodes … percent of Off Drug (baseline)” value ([2]; 600 mg bid)?
Answer: (4.3%)

Question: What about the “Episodes of AFib > 1 hrs: Duration” value ([2]; 600 mg bid) of the same compound?
Answer: 26 h

Question: What about the “Episodes of AFib > 1 hrs: Number” value ([2]; 600 mg bid) of the same compound?
Answer: 6

Question: And the “Episodes … percent of Off Drug (baseline)” value ([2]; 800 mg bid)?
Answer: (2.5%)

Question: And the “Episodes of AFib > 1 hrs: Duration” value ([2]; 800 mg bid)?
Answer: 15 h

Question: And the “Episodes of AFib > 1 hrs: Number” value ([2]; 800 mg bid)?
Answer: 6
